Test results published in PMC6510909 (Investigational New Drugs, 2018).
Where two headings read alike, the source gives them in different places.

System: patients with previously untreated metastatic PDAC
Conditions: for Overall safety and tolerability: in combination with nab-P + G, up to 200 mg twice daily
Excerpt: Patients were ≥ 18 years of age with previously untreated metastatic PDAC (measurable per Response Evaluation Criteria in Solid Tumors [RECIST] v 1.1); and an Eastern Cooperative Oncology Group (ECOG) performance status ≤1 and adequate hematologic, renal, and hepatic function. […] All patients provided written informed consent prior to enrollment.
Screening occurred within 21 days before the first MMB dose and included medical history and prior/concomitant medication review, physical exam and assessments of vital signs, ECOG performance status, pregnancy test (females), laboratory assessment, adverse event (AE) assessment, and staging CT or MRI. MMB was given orally once or twice daily as per the assigned dosing cohort: Cohort 1–100 mg MMB once daily; Cohort 2–150 mg MMB once daily; Cohort 3–200 mg MMB once daily; Cohort 4–150 mg MMB twice daily; and Cohort 5–200 mg MMB twice daily. […] Each dose cohort consisted of 3 patients, unless a dose-limiting toxicity (DLT) was experienced during the first 28 days of treatment. If one DLT was experienced, 3 additional patients were enrolled in the dose cohort. If a second DLT was experienced in the same cohort, MTD was considered to be exceeded. Dose escalation continued from Dose Level 2 to 3 to 4 to 5 if no DLT occurred in 3 evaluable subjects or < 2 DLTs occurred in 6 evaluable patients within each dose level.
Primary endpoint was incidence of DLT(s) based on the Common Terminology Criteria for Adverse Events (CTCAE) version 4.03. Secondary endpoints were overall survival (OS) (defined as the time interval from the first dose of MMB to death from any cause; patients lost to follow-up or who survived until the end of study were censored at the last date that they were known to be alive), progression-free survival (PFS) (defined as the time interval from the first dose of MMB to the earlier of the first documentation of definitive disease progression or death from any cause), overall response rate (ORR) (proportion of patients who achieved a complete or partial response [CR or PR, respectively] during MMB therapy), and duration of response (time from CR or PR to definitive disease progression or death from any cause).
Planned enrollment was up to 30 patients based on the standard 3 + 3 design. The efficacy analyses were conducted in all enrolled patients. Safety analyses were conducted in all enrolled patients who received ≥1 dose of study treatment. Descriptive summary statistics were provided for patient characteristics and safety variables. Kaplan-Meier estimates were used for OS, PFS, duration of response, and their 95% confidence intervals (CIs). The ORR was summarized for each dose level cohort with corresponding 2-sided 95% exact CIs based on the Clopper-Pearson method.

[1] = all cohorts, MMB + nab-P + G, n = 25
[2] = all cohorts, MMB + nab-P + G, AE consistent with JAK1/2 inhibition

Q: With N#CCNC(=O)c1ccc(-c2ccnc(Nc3ccc(N4CCOCC4)cc3)n2)cc1 [MMB, momelotinib] as the compound, how does the “Dose-limiting toxicity (Grade 3 diarrhea), patients” value (100 mg MMB once daily + nab-P + G) read?
A: 1 patient

Q: And the “Dose-limiting toxicity (Grade 3 diarrhea), patients” value (200 mg MMB once daily + nab-P + G)?
A: 1 patient

Q: And the “Maximum tolerated dose (MTD)” value (MMB up to 200 mg twice daily + nab-P + G)?
A: not reached

Q: And the “Deaths due to TEAEs” value [1]?
A: no deaths

Q: What about the “Grade 3 MMB-related AE deep vein thrombosis” value [1] of the same compound?
A: 4.0%

Q: And the “Grade 3 MMB-related AE dehydration” value [1]?
A: 4.0%

Q: What about the “Grade 3 MMB-related AE diarrhea” value [1] of the same compound?
A: 12.0%

Q: And the “Grade 3 MMB-related AE fatigue” value [1]?
A: 4.0%

Q: And the “Grade 3 MMB-related AE febrile neutropenia” value [1]?
A: 4.0%

Q: And the “Grade 3 MMB-related AE generalized edema” value [1]?
A: 4.0%

Q: And the “Grade 3 MMB-related AE hypertension” value [1]?
A: 4.0%

Q: What about the “Grade 3 MMB-related AE malaise” value [1] of the same compound?
A: 4.0%

Q: And the “Grade 3 MMB-related AE nephrolithiasis” value [1]?
A: 4.0%

Q: And the “Grade 3 MMB-related AE peripheral edema” value [1]?
A: 4.0%

Q: And the “Grade 3 MMB-related AE peripheral sensory motor neuropathy” value [1]?
A: 8.0%

Q: And the “Grade 3 MMB-related AE polyneuropathy” value [1]?
A: 4.0%

Q: What about the “Grade 3 MMB-related AE respiratory distress” value [1] of the same compound?
A: 4.0%

Q: And the “Grade 3 MMB-related AE thrombocytopenia” value [1]?
A: 8.0%

Q: And the “Grade 3 MMB-related AE tremor” value [1]?
A: 4.0%

Q: And the “Grade 3 or 4 AEs considered related to MMB” value [1]?
A: 44%

Q: And the “Grade 3 or 4 TEAEs, patients” value [1]?
A: 88%

Q: And the “Grade 3 or 4 neutropenia, patients” value [1]?
A: 32%

Q: What about the “Grade 4 MMB-related event embolic stroke” value [1] of the same compound?
A: 4.0%

Q: What about the “Grade 4 MMB-related event increased blood uric acid” value [1] of the same compound?
A: 4.0%

Q: What about the “Grade 4 MMB-related event neutropenia” value [1] of the same compound?
A: 4.0%

Q: What about the “Neutropenia Grade 3, patients” value [1] of the same compound?
A: 16%

Q: And the “Neutropenia Grade 4, patients” value [1]?
A: 16%

Q: And the “Patients with at least one treatment-emergent AE (TEAE)” value [1]?
A: All patients

Q: And the “Peripheral neuropathy attributed by investigators as related to the drug, patients” value [1]?
A: 16%

Q: And the “Peripheral neuropathy leading to discontinuation of MMB, patients” value [1]?
A: 8%

Q: What about the “Peripheral sensory neuropathy attributed by investigators as related to the drug, patients” value [1] of the same compound?
A: 24%

Q: What about the “Pneumonia Grade 3, patients” value [1] of the same compound?
A: 24%

Q: And the “SAEs considered related to MMB, patients” value [1]?
A: 24%

Q: What about the “Serious AEs (SAEs), patients” value [1] of the same compound?
A: 72%

Q: And the “TEAE abdominal pain, patients” value [1]?
A: 44%

Q: What about the “TEAE alopecia, patients” value [1] of the same compound?
A: 40%

Q: What about the “TEAE anemia, patients” value [1] of the same compound?
A: 68%

Q: What about the “TEAE constipation, patients” value [1] of the same compound?
A: 52%

Q: What about the “TEAE decreased appetite, patients” value [1] of the same compound?
A: 40%

Q: And the “TEAE diarrhea, patients” value [1]?
A: 64%

Q: What about the “TEAE dysgeusia, patients” value [1] of the same compound?
A: 40%

Q: And the “TEAE fatigue, patients” value [1]?
A: 80%

Q: What about the “TEAE hypertension, patients” value [1] of the same compound?
A: 36%

Q: What about the “TEAE nausea, patients” value [1] of the same compound?
A: 76%

Q: What about the “TEAE peripheral edema, patients” value [1] of the same compound?
A: 48%

Q: And the “TEAE peripheral neuropathy, patients” value [1]?
A: 36%

Q: And the “TEAE peripheral sensory neuropathy, patients” value [1]?
A: 36%

Q: What about the “TEAE pyrexia, patients” value [1] of the same compound?
A: 56%

Q: And the “TEAE vomiting, patients” value [1]?
A: 52%

Q: And the “Peripheral neuropathy, predefined AE of interest, patients” value (all cohorts, MMB + nab-P + G, n = 25, higher incidence at the two highest dose levels)?
A: 60%

Q: And the “AE neutropenia, patients” value [2]?
A: 32%

Q: What about the “AE thrombocytopenia, patients” value [2] of the same compound?
A: 20%

Q: What about the “Overall safety and tolerability” value of the same compound?
A: safe and well tolerated

Q: What about the “Overall safety and tolerability” value (listed as Momelotinib) of the same compound?
A: well tolerated

Q: What about the “Maximum administered dose (MAD)” value (twice daily, + nab-P + G) of the same compound?
A: 200 mg
